From PubChem BioAssay AID1963977 (Molecular Pharmacology Branch, DTP, NCI, 2024)
Several values for one entry are separate records, joined by “and”; a condition that tells them apart may be missing. Equal entries are not always repeated.

Tested on: 624824-186-R-J3-PDC multicell spheroids, viability
Assay: Anticancer human tumor 624824-186-R-J3-PDC patient-derived colon adenocarcinoma cell line growth inhibition [PI3K]
Details: for viability, T/C: stronger effect = lower value
In short: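 Targeted small molecules plus PI3K inhibitors, half-log dose series from Cmax (default top 10 microM), were applied to heterotypic spheroids of cancer cells with HUVEC and MSCs. Viability indicated growth inhibition.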

[1] = curve of first compound, second compound 0.0316 µM
[2] = curve of first compound, second compound 0.1 µM
[3] = curve of first compound, second compound 0.316 µM
[4] = curve of first compound, second compound 1 µM
[5] = curve of first compound, second compound 3.16 µM
[6] = curve of first compound, second compound 10 µM
[7] = second compound 0.0316 µM, first compound 0.0316 µM
[8] = second compound 0.0316 µM, first compound 0.1 µM
[9] = second compound 0.0316 µM, first compound 0.316 µM
[10] = second compound 0.0316 µM, first compound 1 µM
[11] = second compound 0.0316 µM, first compound 3.16 µM
[12] = second compound 0.0316 µM, first compound 10 µM
[13] = second compound 0.1 µM, first compound 0.0316 µM
[14] = second compound 0.1 µM, first compound 0.1 µM
[15] = second compound 0.1 µM, first compound 0.316 µM
[16] = second compound 0.1 µM, first compound 1 µM
[17] = second compound 0.1 µM, first compound 3.16 µM
[18] = second compound 0.1 µM, first compound 10 µM
[19] = second compound 0.316 µM, first compound 0.0316 µM
[20] = second compound 0.316 µM, first compound 0.1 µM
[21] = second compound 0.316 µM, first compound 0.316 µM
[22] = second compound 0.316 µM, first compound 1 µM
[23] = second compound 0.316 µM, first compound 3.16 µM
[24] = second compound 0.316 µM, first compound 10 µM
[25] = second compound 1 µM, first compound 0.0316 µM
[26] = second compound 1 µM, first compound 0.1 µM
[27] = second compound 1 µM, first compound 0.316 µM
[28] = second compound 1 µM, first compound 1 µM
[29] = second compound 1 µM, first compound 3.16 µM
[30] = second compound 1 µM, first compound 10 µM
[31] = second compound 3.16 µM, first compound 0.0316 µM
[32] = second compound 3.16 µM, first compound 0.1 µM
[33] = second compound 3.16 µM, first compound 0.316 µM
[34] = second compound 3.16 µM, first compound 1 µM
[35] = second compound 3.16 µM, first compound 3.16 µM
[36] = second compound 3.16 µM, first compound 10 µM
[37] = second compound 10 µM, first compound 0.0316 µM
[38] = second compound 10 µM, first compound 0.1 µM
[39] = second compound 10 µM, first compound 0.316 µM
[40] = second compound 10 µM, first compound 1 µM
[41] = second compound 10 µM, first compound 3.16 µM
[42] = second compound 10 µM, first compound 10 µM
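Also: spheroids exposed to agents for seven days before luminescence read.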
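For viability, T/C in this document: luminescent signal used as a stand-in for spheroid viability; percent viability relative to DMSO vehicle control wells taken as 100%.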

C[C@@H](NC(=O)c1ncnc(N)c1Cl)c1ncc(C(=O)Nc2cc(C(F)(F)F)c(Cl)cn2)s1 + CC(Nc1ncnc2nc[nH]c12)c1cc2cccc(Cl)c2c(=O)n1-c1ccccc1
IC50 [1]: > 10 µM | IC50 [2]: > 10 µM | IC50 [3]: > 10 µM | IC50 [4]: > 10 µM | IC50 [5]: > 10 µM | IC50 [6]: > 10 µM | viability, T/C [7]: 115% | viability, T/C [8]: 100% | viability, T/C [9]: 107% | viability, T/C [10]: 100% | viability, T/C [11]: 99.8% | viability, T/C [12]: 94.4% | viability, T/C [13]: 100% | viability, T/C [14]: 101% | viability, T/C [15]: 104% | viability, T/C [16]: 107% | viability, T/C [17]: 101% | viability, T/C [18]: 107% | viability, T/C [19]: 96.8% | viability, T/C [20]: 105% | viability, T/C [21]: 92.5% | viability, T/C [22]: 96.1% | viability, T/C [23]: 98.8% | viability, T/C [24]: 97.6% | viability, T/C [25]: 99.2% | viability, T/C [26]: 94.4% | viability, T/C [27]: 110% | viability, T/C [28]: 92.8% | viability, T/C [29]: 94.8% | viability, T/C [30]: 83% | viability, T/C [31]: 97.1% | viability, T/C [32]: 102% | viability, T/C [33]: 104% | viability, T/C [34]: 94.3% | viability, T/C [35]: 93.8% | viability, T/C [36]: 73.3% | viability, T/C [37]: 100% | viability, T/C [38]: 94.7% | viability, T/C [39]: 96.3% | viability, T/C [40]: 83% | viability, T/C [41]: 82.2% | viability, T/C [42]: 61%

C=CC(=O)N1CCN(c2nc(=O)n(-c3c(C)ccnc3C(C)C)c3nc(-c4c(O)cccc4F)c(F)cc23)C(C)C1 (stereo not given)
viability, T/C (compound 0.0316 µM): 103% [middle of 4 runs] | viability, T/C (compound 0.1 µM): 94.8% [middle of 4 runs] | viability, T/C (compound 0.316 µM): 103% [middle of 4 runs] | viability, T/C (compound 1 µM): 94.3% [middle of 4 runs] | viability, T/C (compound 3.16 µM): 104% [middle of 4 runs] | viability, T/C (compound 10 µM): 106% and 108% (3×) | IC50 (curve of compound): > 10 µM

CCCS(=O)(=O)Nc1ccc(F)c(C(=O)c2c[nH]c3ncc(-c4ccc(Cl)cc4)cc23)c1F + Cc1nc(NC(=O)N2CCCC2C(N)=O)sc1-c1ccnc(C(C)(C)C(F)(F)F)c1
IC50 [1]: 5.14 µM | IC50 [2]: 4.63 µM | IC50 [3]: 3.75 µM | IC50 [4]: 1.99 µM | IC50 [5]: 0.525 µM | IC50 [6]: 0.0866 µM | viability, T/C [7]: 108% | viability, T/C [8]: 92.1% | viability, T/C [9]: 103% | viability, T/C [10]: 92.6% | viability, T/C [11]: 80.5% | viability, T/C [12]: 10.2% | viability, T/C [13]: 95.6% | viability, T/C [14]: 88.1% | viability, T/C [15]: 94.6% | viability, T/C [16]: 82.1% | viability, T/C [17]: 69.7% | viability, T/C [18]: 12.8% | viability, T/C [19]: 115% | viability, T/C [20]: 87.9% | viability, T/C [21]: 80.7% | viability, T/C [22]: 73.7% | viability, T/C [23]: 68.4% | viability, T/C [24]: 14.6% | viability, T/C [25]: 84.6% | viability, T/C [26]: 89.8% | viability, T/C [27]: 62% | viability, T/C [28]: 65.2% | viability, T/C [29]: 43.7% | viability, T/C [30]: 13.7% | viability, T/C [31]: 77.6% | viability, T/C [32]: 64.8% | viability, T/C [33]: 52% | viability, T/C [34]: 44.6% | viability, T/C [35]: 34.7% | viability, T/C [36]: 9.51% | viability, T/C [37]: 57% | viability, T/C [38]: 50.5% | viability, T/C [39]: 36.1% | viability, T/C [40]: 31.8% | viability, T/C [41]: 26.6% | viability, T/C [42]: 6.93%

C#Cc1c(F)ccc2cc(O)cc(-c3ncc4c(N5CC6CCC(C5)N6)nc(OCC56CCCN5CC(F)C6)nc4c3F)c12 (stereo not given) + CC(Nc1ncnc2nc[nH]c12)c1cc2cccc(Cl)c2c(=O)n1-c1ccccc1
IC50 [1]: > 10 µM | IC50 [2]: > 10 µM | IC50 [3]: > 10 µM | IC50 [4]: > 10 µM | IC50 [5]: > 10 µM | IC50 [6]: > 10 µM | viability, T/C [7]: 115% | viability, T/C [8]: 93.2% | viability, T/C [9]: 104% | viability, T/C [10]: 101% | viability, T/C [11]: 97% | viability, T/C [12]: 117% | viability, T/C [13]: 106% | viability, T/C [14]: 99.2% | viability, T/C [15]: 117% | viability, T/C [16]: 113% | viability, T/C [17]: 105% | viability, T/C [18]: 115% | viability, T/C [19]: 88.4% | viability, T/C [20]: 103% | viability, T/C [21]: 109% | viability, T/C [22]: 102% | viability, T/C [23]: 114% | viability, T/C [24]: 115% | viability, T/C [25]: 102% | viability, T/C [26]: 110% | viability, T/C [27]: 108% | viability, T/C [28]: 103% | viability, T/C [29]: 111% | viability, T/C [30]: 112% | viability, T/C [31]: 96% | viability, T/C [32]: 105% | viability, T/C [33]: 105% | viability, T/C [34]: 95.3% | viability, T/C [35]: 100% | viability, T/C [36]: 110% | viability, T/C [37]: 96.3% | viability, T/C [38]: 97% | viability, T/C [39]: 94.5% | viability, T/C [40]: 92.8% | viability, T/C [41]: 98.3% | viability, T/C [42]: 85.7%

CC(Cn1ccc(-c2ccc(C#N)c(Cl)c2)n1)NC(=O)c1cc(C(C)O)[nH]n1 (stereo not given) + CC(Nc1ncnc2nc[nH]c12)c1cc2cccc(Cl)c2c(=O)n1-c1ccccc1
IC50 [1]: > 10 µM | IC50 [2]: > 10 µM | IC50 [3]: > 10 µM | IC50 [4]: > 10 µM | IC50 [5]: > 10 µM | IC50 [6]: > 10 µM | viability, T/C [7]: 104% | viability, T/C [8]: 97% | viability, T/C [9]: 98.8% | viability, T/C [10]: 99.6% | viability, T/C [11]: 105% | viability, T/C [12]: 109% | viability, T/C [13]: 104% | viability, T/C [14]: 102% | viability, T/C [15]: 95.3% | viability, T/C [16]: 104% | viability, T/C [17]: 108% | viability, T/C [18]: 97.7% | viability, T/C [19]: 103% | viability, T/C [20]: 103% | viability, T/C [21]: 103% | viability, T/C [22]: 104% | viability, T/C [23]: 115% | viability, T/C [24]: 117% | viability, T/C [25]: 102% | viability, T/C [26]: 111% | viability, T/C [27]: 100% | viability, T/C [28]: 115% | viability, T/C [29]: 99.6% | viability, T/C [30]: 113% | viability, T/C [31]: 96.3% | viability, T/C [32]: 101% | viability, T/C [33]: 112% | viability, T/C [34]: 97.1% | viability, T/C [35]: 109% | viability, T/C [36]: 104% | viability, T/C [37]: 93.2% | viability, T/C [38]: 99% | viability, T/C [39]: 94.2% | viability, T/C [40]: 88.2% | viability, T/C [41]: 91.8% | viability, T/C [42]: 95.6%
